Assay results taken from patent US20050064005A1, “Active agent delivery systems including a miscible polymer blend, medical devices, and methods” (priority 2003, published 2005).

Experiment: In vitro elution kinetics of dual active agent release from coated stents in PBS at 37° C.
Format: physicochemical
Method: The in vitro elution kinetics of dual release was carried out in PBS and at 37° C. The stent was crimped on a stent delivery system and then expanded. After expansion, the physical aspects of the stent were noted prior to placing the stent inside a vial containing 3 milliliters (ml) of PBS. The vial was placed in a shaker at 37° C. and at certain time intervals; the whole solution (3 ml) was removed and replaced with fresh PBS. The amount of each active agent in each dual release system was determined by UV-Vis spectrophotometer using wavelengths of 250 nanometers (nm) for mycophenolic acid and 359 nm for sulfasalazine and solving simultaneous equations of active agent mixtures.

SMILES: COc1c(C)c2c(c(O)c1C/C=C(\C)CCC(=O)O)C(=O)OC2 [mycophenolic acid]
- release kinetics of the active agent in the inner layer (stent system of FIG. 1 with TECOPLAST middle barrier layer (FIG. 3) versus without barrier (FIG. 2), PBS, 37° C.): slowed down significantly

SMILES: O=C(O)c1cc(/N=N/c2ccc(S(=O)(=O)Nc3ccccn3)cc2)ccc1O [sulfasalazine]
- release rate of sulfasalazine (from blends of TECOPLAST and TECOPHILIC polyurethanes as outer layer (FIG. 4)): increased as the percentage of TECOPHILIC polyurethane in the blend increased
